{
  "source": "patent EP0421199A2",
  "about": "“(+)-(2-Hydroxy)-2-adamantyl)-1-imidazolyl-3-tolyl-methane and its salts, process for its preparation, medicine containing this compound and its use” (HOECHST AKTIENGESELLSCHAFT, priority 1989, dated 1991)",
  "key": {"[1]": {"test_system": "Yohimbin-Toxizität", "test": "Potentiation of yohimbine toxicity in mice (Methode 2)", "type": "in vivo, Maus", "settings": "Methode 2, mouse; for LD50, mg/kg p.o.: 1 h before yohimbine hydrochloride 20 mg/kg s.c., deaths after 18 h", "experimental": "Die Toxizität von Yohimbin, einem Blocker präsynaptischer alpha-Rezeptoren, wird durch Antidepressiva potenziert (Literatur R.M. Quinton, Brit. J. Pharmac. 21 , 55-56 (1963)). Männliche Mäuse, NMRI-Stamm, 20-22 g, wurden in Versuchsgruppen zu n = 10 zugeordnet. Das Prüfpräparat wurde in 1 %igem wäßrigen Tylose@-Schleim suspendiert und im Volumen 10 ml/kg oral gegeben. Kontrollen erhielten nur das Vehikel.\nNach einer Vorbehandlungszeit von 1 Stunde erhielten alle Tiere eine allein nicht toxische Dosis von Yohimbin-Hydrochlorid, 20 mg/kg subkutan. Die verstorbenen Tiere wurden 18 Stunden nach dieser Behandlung ermittelt. (Berechnung der LDso mit Probit-Analyse)."}, "[2]": {"test_system": "Stereotypien", "test": "Induction of stereotypies in rats (Methode 3)", "type": "in vivo", "settings": "Methode 3, rat, p.o.; dose up to which no stereotypies were seen", "source_text": "Die Versuche wurden an Wistar-Ratten, männlich, 130-140 g durchgeführt. Die Stereotypien wurden in den ersten beiden Stunden nach Substanzgabe in 15-Minuten-Intervallen beurteilt, danach bis zur 6. Stunde in halbstündigen Intervallen. Die folgende Skala wurde benutzt.\nDie Punktzahlen wurden errechnet alß Gesamtzahl pro 6 Stunden, dividiert durch die Zahl der Beobachtungen.\nDer EDso-Wert ist die Dosis, bei der die Hälfte der maximal möglichen Punktzahl (5 Punkte multipliziert mit der Zahl der Beobachtungen) erreicht wird."}, "[3]": {"test_system": "Tetrabenazin-Ptosis", "test": "Effect on tetrabenazine ptosis (TBZ method, Methode 1)", "type": "in vivo, Maus", "settings": "for ED50: Mus musculus", "experimental": "Sechs männl. Tieren wird die entsprechende Menge eines Homogenats der jeweiligen Substanz in wäßriger Carboxymethylcellulose oder Methyl-hydroxyethylcellulose 30 Min. vor der Behandlung mit Tetrabenazin (40 mg/kg intraperitoneal) mit Schlundsonde gefüttert. […]"}, "[4]": {"test_system": "Aufnahme von 14C-Noradrenalin in Synaptosomen", "test": "Inhibition of noradrenaline reuptake in synaptosomes (Methode 4)", "type": "biochemical, Ratte", "settings": "50 % inhibition of 14C-noradrenaline uptake, 37 °C, 4 min", "experimental": "Synaptosomen aus Rattenhirn werden nach der Methode von Whittaker (Handbook of Neurochemistry 2 , 327-364, Editor A. Lajtha; London and New York, 1969) isoliert und die Monoamin-Aufnahme nach der Methode von Schacht und Heptner gemessen (Biochemical Pharmac. 23 , 3413-3422). Die 14C Noradrenalin-Aufnahme wurde in einem Krebs-Henseleit-Bikarbonatpuffer pH 7,4, der 11 Millimol Glucose enthielt, gemessen. 2,5 ml der Synaptosomen-Suspension wurden mit markiertem Noradrenalin bei 37 ° C inkubiert in Gegenwart von oder ohne Testsubstanz. Die Inkubationszeit betrug 4 Minuten. Die weitere Aufnahme wurde dann durch Abkühlen mit Eis gestoppt. Um nichtspezifische Adsorptionen auszuschließen, wurden Kontrollproben bei 0 ° C unter sonst gleichen Bedingungen inkubiert.\nDie aufgenommenen Noradrenalinmengen wurden mit Hilfe der Membranfiltrationstechnik mit einem Millipore Sampling Manifold mit Cellulosenitratfiltern von 25 mm Durchmesser und 0,6 Mikrometer Porengröße gemessen. Die Synaptosomen wurden unter vermindertem Druck gesammelt und die Radioaktivität in einem Packard-Tricarb-Scintillationszähler bestimmt. Die Menge an angesammeltem Noradrenalin wurde angegeben als Prozent Radioaktivität, die zur Inkubationsmischung zugesetzt wurde.\nDie ICso-Werte (inhibitory concentration) der nachstehenden Tabellen geben die Konzentrationen der Testsubstanzen an, welche die Aufnahme von ^14C-Noradrenalin zu 50 % hemmen."}, "[5]": {"test_system": "Tiermodelle, prädiktiv für antidepressive Wirkung beim Menschen", "test": "General pharmacological testing in animal models predictive of antidepressant action in man", "type": "in vivo", "settings": "result in words", "source_text": "Bei der pharmakologischen Untersuchung des (+)-Enantiomeren der Verbindung der Formel I wurden unerwartet starke Wirkungen dieser Substanz in Tiermodellen, die als prädiktiv für antidepressive Wirkung beim Menschen gelten, gefunden.\nDie pharmakologischen Prüfungen wurden mit bekannten Modellen, die als prädiktiv für antidepressive Wirkung beim Menschen gelten, durchgeführt. Das sind beispielsweise: die Beeinflussung der Tetrabenazin-Ptosis bei der Maus und die Potenzierung der Yohimbin-Toxizität bei Mäusen. Als weiteres Beurteilungskriterium wurde beispielsweise die Prüfung der Auslösung von Stereotypien an Ratten herangezogen."}, "[6]": {"test_system": "Tiermodelle, prädiktiv für antidepressive Wirkung beim Menschen", "settings": "as named in Deutsche Patentanmeldung P 36 28 545.5; cited from earlier work"}, "[7]": {"settings": "read-out: ED50, mg/kg p.o. (Vertrauensgrenzen), Methode 1, mouse, 30 min before tetrabenazine 40 mg/kg i.p., confidence limits in brackets, repeated determinations"}, "[8]": {"settings": "Methode 1, mouse, p.o., 30 min before tetrabenazine 40 mg/kg i.p., confidence limits in brackets, repeated determinations, read-out: ED50, mg/kg p.o. (Vertrauensgrenzen)"}, "[9]": {"settings": "Methode 1, mouse, 30 min before tetrabenazine 40 mg/kg i.p., confidence limits in brackets, repeated determinations"}},
  "note": "“And” between values parts separate entries of the source, which are not always exact repeats. Identical values can stand only once. Like-named read-outs stand apart in the source and are kept apart here.",
  "data": [
    {"compound": "OC1(C(c2cccc(Cl)c2)n2ccnc2)C2CC3CC(C2)CC1C3", "note": "(stereo not drawn)", "values": [
      {"measurement": "LD50, mg/kg p.o.", "setting": "[1]", "result": "4,4 mg/kg"},
      {"measurement": "keine Stereotypien bis", "setting": "[2]", "result": "> 300", "unit": "mg/kg"}
    ]},
    {"compound": "COc1ccc(C(n2ccnc2)C2(O)C3CC4CC(C3)CC2C4)cc1OC", "note": "(stereo not drawn)", "values": [
      {"measurement": "LD50, mg/kg p.o.", "setting": "[1]", "result": "3,0 mg/kg"},
      {"measurement": "ED50", "setting": "[3]; [7]", "result": 3, "unit": "mg/kg"}
    ]},
    {"compound": "OC1(C(c2ccc3ccccc3c2)n2ccnc2)C2CC3CC(C2)CC1C3", "note": "(stereo not drawn)", "values": [
      {"measurement": "LD50, mg/kg p.o.", "setting": "[1]", "result": "3,2 mg/kg"},
      {"measurement": "ED50", "setting": "[3]; [7]", "result": 3, "unit": "mg/kg"}
    ]},
    {"compound": "OC(C(c1cccc(Cl)c1)n1ccnc1)C12CC3CC(CC(C3)C1)C2", "note": "(stereo not drawn)", "values": [
      {"measurement": "LD50, mg/kg p.o.", "setting": "[1]", "result": "8,5 mg/kg"},
      {"measurement": "ED50", "setting": "[3]; [8]", "result": 3.7, "unit": "mg/kg"},
      {"measurement": "keine Stereotypien bis", "setting": "[2]", "result": "> 30", "unit": "mg/kg"}
    ]},
    {"compound": "CC(C)(C)C(O)C(c1ccc(-c2ccccc2)cc1)n1ccnc1", "note": "(stereo not drawn)", "values": [
      {"measurement": "LD50, mg/kg p.o.", "setting": "[1]", "result": "5,3 mg/kg"},
      {"measurement": "ED50", "setting": "[3]; [8]", "result": 3, "unit": "mg/kg"},
      {"measurement": "keine Stereotypien bis", "setting": "[2]", "result": "> 30", "unit": "mg/kg"},
      {"measurement": "IC50", "setting": "[4]", "result": "> 1000", "unit": "nM"}
    ]},
    {"compound": "CCCC(C)(C)C(O)C(c1ccc(-c2ccccc2)cc1)n1ccnc1", "note": "(stereo not drawn)", "values": [
      {"measurement": "LD50, mg/kg p.o.", "setting": "[1]", "result": "24,5 mg/kg"},
      {"measurement": "keine Stereotypien bis", "setting": "[2]", "result": "keine Stereotypien"}
    ]},
    {"compound": "C=CCC1(C(O)C(c2cccc(Cl)c2)n2ccnc2)CCCCC1", "note": "(stereo not drawn)", "values": [
      {"measurement": "ED50; mg/kg p.o. (Vertrauensgrenzen)", "setting": "[3]; [9]", "result": "6,1 (0,5-72,9) mg/kg"},
      {"measurement": "ED50", "setting": "[3]; [7]", "result": 3.9, "unit": "mg/kg"}
    ]},
    {"compound": "OC1(C(c2cccc(Cl)c2)n2ccnc2)C2CC3CC(C2)CC1C3", "note": "(single isomer, unassigned)", "values": [
      {"measurement": "LD50, mg/kg p.o.", "setting": "[1]", "result": "8,5 (0,5-130) mg/kg"},
      {"measurement": "LD50, mg/kg p.o.", "setting": "[1]; 1080 min", "result": "4,6 mg/kg"},
      {"measurement": "ED50; mg/kg p.o. (Vertrauensgrenzen)", "setting": "[3]; [9]", "result": "2,3 (0,9-5,8) mg/kg"},
      {"measurement": "ED50", "setting": "[3]; [7]", "result": 2.9, "unit": "mg/kg"},
      {"measurement": "keine Stereotypien bis", "setting": "[2]", "result": "> 30", "unit": "mg/kg"},
      {"measurement": "IC50", "setting": "[4]", "result": 120, "unit": "nM"}
    ]},
    {"compound": "OC1(C(c2cccc(Cl)c2)n2ccnc2)C2CC3CC(C2)CC1C3", "note": "(single isomer, unassigned; (+)) [(+)-(2-Hydroxy-2-adamantyl)-1-imidazolyl-(3-chlorphenyl)-methan]", "values": [
      {"measurement": "pharmakologische Wirkung", "setting": "[5]", "result": "geringere Wirkung"}
    ]},
    {"compound": "Cc1cccc(C(n2ccnc2)C2(O)C3CC4CC(C3)CC2C4)c1", "note": "(single isomer, unassigned; (+)) [Beispiel 1]", "values": [
      {"measurement": "LD50, mg/kg p.o.", "setting": "[1]", "result": "2,9 (0,2 - 41,3) mg/kg"},
      {"measurement": "LD50 umgerechnet (F:O,68) auf äquimolare Menge Base (nach Beispiel 2)", "setting": "[1]; p.o., tested as hydrogentartrate, converted to equimolar amount of base, 1080 min", "result": "2,0 (0,1 - 28,1) mg/kg"},
      {"measurement": "ED50; mg/kg p.o. (Vertrauensgrenzen)", "setting": "[3]; [9]", "result": "1,2 (0,3 - 3,5) mg/kg and 1,9 (1,0 - 3,5) mg/kg and 1,4 (0,7 - 2,7) mg/kg"},
      {"measurement": "ED50", "setting": "[3]; [7]", "result": "1.3 mg/kg and 1.75 mg/kg"},
      {"measurement": "keine Stereotypien bis", "setting": "[2]", "result": "keine Stereotypien bis 100 mg/kg p.o."}
    ]},
    {"compound": "Cc1cccc(C(n2ccnc2)C2(O)C3CC4CC(C3)CC2C4)c1", "note": "(single isomer, unassigned; enantiomere) [(-)-Enantiomere der Verbindung I]", "values": [
      {"measurement": "pharmakologische Wirkung", "setting": "[5]", "result": "pharmakologisch unwirksam"}
    ]},
    {"compound": "Cc1cccc(C(n2ccnc2)C2(O)C3CC4CC(C3)CC2C4)c1", "note": "(stereo not drawn) [(2-Hydroxy-2-adamantyl)-1-imidazolyl-3-tolyl-methan]", "values": [
      {"measurement": "antidepressive Wirkung in prädiktiven Tiermodellen", "setting": "[6]", "result": "antidepressiv wirksam"}
    ]},
    {"compound": "Cc1cccc(C(n2ccnc2)C2(O)C3CC4CC(C3)CC2C4)c1", "note": "(stereo not drawn) [drawing 18]", "values": [
      {"measurement": "LD50, mg/kg p.o.", "setting": "[1]", "result": "7,1 mg/kg"},
      {"measurement": "ED50; mg/kg p.o. (Vertrauensgrenzen)", "setting": "[3]; [9]", "result": "1,7 (0,5-5,9) mg/kg"},
      {"measurement": "ED50", "setting": "[3]; [7]", "result": 1.5, "unit": "mg/kg"},
      {"measurement": "keine Stereotypien bis", "setting": "[2]", "result": "> 30", "unit": "mg/kg"},
      {"measurement": "IC50", "setting": "[4]", "result": 120, "unit": "nM"}
    ]}
  ]
}
